In US20060099225A1 (priority 2004, published 2006):

Key:
Ebola virus (EBOV) = assay type: cell-based
[1] = system: 293T cells transfected with Ebola GP; assay type: cell-based, human

Compound	EBOV infection, viral titer 48 hour post infection (Ebola virus (EBOV))	virus production when cells recover in medium 4 h after treatment before infection (Ebola virus (EBOV))	general cytotoxic effect, trypan blue exclusion (Vero E6 cells)	association of Ebola GP with rafts (detergent insoluble fraction) after pre-treatment [1]
CCCCC[C@@H](O)[C@H]1C(=O)O[C@H](C)[C@@H](O)/C=C/C=C/C=C/C=C/C=C(\C)[C@@H](O)C[C@H](O)C[C@H](O)C[C@H](O)C[C@H](O)C[C@H](O)C[C@@H]1O [filipin]	significant inhibition of EBOV infection	could produce large amounts of virus	cells were shown to be viable	
methyl-β-cyclodextrin				almost complete removal of Ebola GP from rafts
nystatin			cells were shown to be viable	
